According to the NIST ThermoML archive (doi:10.1021/acs.jced.5b00256):

Columns and labels:
[1] = relative permittivity at various frequencies (dimensionless); xn = mol fraction of the nth substance listed; conditions: 100 kPa, Liquid, Frequency=2 MHz, Parallel plate capacitor
[2] = refractive index (Na D-line) (dimensionless); xn = mol fraction of the nth substance listed; conditions: 100 kPa, Liquid, Standard Abbe refractometry

COc1cccc(Br)c1 [1-bromo-3-methoxybenzene] + CCCO
Conditions	refractive index, 303.15 K	refractive index, 313.15 K	refractive index, 323.15 K	refractive index, 333.15 K	relative permittivity, 303.15 K	relative permittivity, 313.15 K	relative permittivity, 323.15 K	relative permittivity, 333.15 K
[1], x2 = 0	–	–	–	–	7.01	6.85	6.74	6.6
[1], x2 = 0.107	–	–	–	–	7.18	7.03	6.89	6.7
[1], x2 = 0.206	–	–	–	–	7.55	7.39	7.15	6.95
[1], x2 = 0.296	–	–	–	–	8.05	7.83	7.55	7.23
[1], x2 = 0.38	–	–	–	–	8.67	8.39	8.08	7.65
[1], x2 = 0.457	–	–	–	–	9.46	9.11	8.68	8.2
[1], x2 = 0.529	–	–	–	–	10.27	9.87	9.4	8.74
[1], x2 = 0.596	–	–	–	–	11.08	10.61	10.11	9.38
[1], x2 = 0.658	–	–	–	–	12.04	11.56	10.94	10.15
[1], x2 = 0.716	–	–	–	–	12.93	12.39	11.71	10.89
[1], x2 = 0.771	–	–	–	–	13.98	13.42	12.88	11.8
[1], x2 = 0.822	–	–	–	–	15.14	14.52	13.63	12.43
[1], x2 = 0.871	–	–	–	–	16.23	15.6	14.65	13.33
[1], x2 = 0.916	–	–	–	–	17.33	16.62	15.64	14.3
[1], x2 = 0.959	–	–	–	–	18.58	17.66	16.7	15.22
[2], x2 = 0	1.56	1.558	1.553	1.55	–	–	–	–
[2], x2 = 0.107	1.555	1.552	1.548	1.546	–	–	–	–
[2], x2 = 0.206	1.544	1.54	1.535	1.532	–	–	–	–
[2], x2 = 0.296	1.53	1.528	1.523	1.519	–	–	–	–
[2], x2 = 0.38	1.517	1.515	1.512	1.508	–	–	–	–
[2], x2 = 0.457	1.504	1.501	1.5	1.497	–	–	–	–
[2], x2 = 0.529	1.493	1.489	1.488	1.484	–	–	–	–
[2], x2 = 0.596	1.484	1.482	1.477	1.474	–	–	–	–
[2], x2 = 0.658	1.473	1.468	1.464	1.461	–	–	–	–
[2], x2 = 0.716	1.461	1.458	1.449	1.447	–	–	–	–
[2], x2 = 0.771	1.447	1.444	1.437	1.435	–	–	–	–
[2], x2 = 0.822	1.435	1.429	1.425	1.423	–	–	–	–
[2], x2 = 0.871	1.421	1.418	1.413	1.41	–	–	–	–
[2], x2 = 0.916	1.41	1.405	1.401	1.398	–	–	–	–
[2], x2 = 0.959	1.396	1.392	1.388	1.385	–	–	–	–
